Measurements from article PMC12431657, “Discovery and mechanistic insights of dibenzoylmethane as a broad spectrum inhibitor of coronavirus” (PLOS Pathogens, 2025).
Values joined by “and” are separate entries in the source; they are usually repeats but may differ in a detail not shown here. Equal entries are not always repeated. Where two headings read alike, the source gives them in different places. Peptide text beside a SMILES is read from it. * marks the point of attachment. Cbz = O=C(OCc1ccccc1)*; CH2F = FC*

Legend:
HCoV-229E [1] = assay: Antiviral activity in vitro, viral RNA copies by qRT-PCR, HCoV-229E in Huh-7 cells; format: cell-based; settings: for EC50 (229E, Huh-7): inhibition at the concentration: replicates
airway inflammation = settings: 50 mpk; cited from earlier work
HCoV-OC43 [2] = system: HCoV-OC43
HCoV-OC43 [3] = assay: Antiviral activity in vitro, qRT-PCR, HCoV-OC43 in Huh-7 cells; format: cell-based; settings: for HCoV-OC43, Huh-7: inhibition at the concentration (Fig2B): replicates
HCoV-229E [4] = assay: Antiviral activity in vitro, qRT-PCR, HCoV-229E in MRC-5 cells; format: cell-based; settings: for HCoV-229E, MRC-5: inhibition at the concentration (Fig2B): replicates
HCoV-OC43 [5] = assay: Antiviral activity in vitro, qRT-PCR, HCoV-OC43 in RD cells; format: cell-based; settings: for EC50 (OC43, RD): inhibition at the concentration: replicates
HCoV-OC43 [6] = format: cell-based; settings: transient expression or RDV control, replicates
HCoV-OC43 [7] = assay: Time-of-addition assay; format: cell-based; settings: replicates
Experimental: To obtain further insight into the stage at which DBM inhibits the replication of HCoV-OC43 and other HCoVs, RD cells were incubated with compounds, including DBM, remdesivir (RDV), and chloroquine (CQ), at different stages of viral infection. Viral RNA from the supernatant was extracted and quantitatively analysed via qRT-PCR. […] For the viral binding assay, cells were cultured in the presence or absence of DBM at different concentrations for 1 hour before being infected with HCoV-OC43 at an MOI of 50, and then were placed on ice for 2 hours for the viral particles to bind to the membrane of the host cells, followed by washing with PBS. […] In addition to binding to receptors from host cells, the spike proteins of HCoV-OC43 could also trigger membrane fusion when HCoV-OC43 spike plasmid-transfected 293T cells were seeded together with RD cells as target cells, and the addition of DBM had no effect on this process (S5C Fig). To examine whether DBM inhibits viral internalisation, cells were inoculated with HCoV-OC43 for 1 hour on ice before being treated with either DBM or DMSO, and CQ was included to prevent endosomal acidification. Subsequently, HCoV-OC43 nucleocapsid proteins were immunostained with CoraLite Plus 488 to assess viral internalisation via confocal microscopy. […] To determine whether DBM influences viral release, we quantified viral RNA both intracellularly and in the supernatant.
To evaluate the effects of DBM on the life cycle of HCoV-229E and HCoV-OC43, fresh culture medium containing 0.6 μM DBM, 0.1 μM remdesivir (RDV), or 10 μM chloroquine (CQ) was supplemented with preseeded cells at different time points relative to infection (entry group: 0 to –2 hours; postinfection group: 2–12 hours; and full-time group: 0 to –12 hours). DMSO served as the control. At 24 hours postinfection, the number of intracellular virus RNA copies was quantified by qRT-PCR as previously described.

HCoV-OC43 [8] = format: cell-based
caspase-6 = target: T1, caspase-6 (Homo sapiens, UniProt P55212); format: cell-based
T1 construct: endogenous in cells
T1 sequence (P55212 24-293): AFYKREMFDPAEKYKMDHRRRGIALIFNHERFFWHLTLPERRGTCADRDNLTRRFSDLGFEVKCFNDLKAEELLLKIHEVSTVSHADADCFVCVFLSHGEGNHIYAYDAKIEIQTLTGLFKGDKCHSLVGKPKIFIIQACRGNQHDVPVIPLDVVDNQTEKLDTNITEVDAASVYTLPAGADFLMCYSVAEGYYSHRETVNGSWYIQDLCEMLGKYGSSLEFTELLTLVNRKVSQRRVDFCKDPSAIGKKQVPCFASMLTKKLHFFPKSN

HCoV-OC43 [9] = assay: HCoV-OC43 nucleocapsid protein and caspase-6 in infected cells (Western blot); format: cell-based; settings: cells pretreated with serially diluted compound

## C/C=C(/C)C(=O)OC(C)(C)[C@@H]1Cc2c(ccc3ccc(=O)oc23)O1 [Columbianadin, columbianadin]
HCoV-229E [1]; Human coronavirus 229E, Huh-7, 24 h, read-out: EC50 HCoV-229E (Huh-7)
  EC50: < 0.08 µM
HCoV-229E [1]; conc. 0.1 (unit not given)
  EC50 (229E, Huh-7): inhibition at the concentration: 58.8 and 59.6 and 58
HCoV-229E [1]; conc. 0.2 (unit not given)
  EC50 (229E, Huh-7): inhibition at the concentration: 70.5 and 77.4 and 76.1
HCoV-229E [1]; conc. 0.7 (unit not given)
  EC50 (229E, Huh-7): inhibition at the concentration: 68 and 72.5 and 61.2
HCoV-229E [1]; conc. 2.2 (unit not given)
  EC50 (229E, Huh-7): inhibition at the concentration: 74.2 and 70.6 and 86.9
HCoV-229E [1]; conc. 6.7 (unit not given)
  EC50 (229E, Huh-7): inhibition at the concentration: 89.7 and 91.5 and 80.4
HCoV-229E [1]; conc. 20 (unit not given)
  EC50 (229E, Huh-7): inhibition at the concentration: 92.4 and 94.9 and 95
Airway inflammation
  airway inflammation in mice: suppress airway inflammation
HCoV-OC43 [2]; Columbianadin 50 mpk oral QD, day 0, one value per mouse
  Body weight changes: 99.0 (4×) and 102.0 (2×)
HCoV-OC43 [2]; columbianadin 50 mpk QD, erythromycin estolate 300 mpk QD
  number of viral RNA copies in HCoV-OC43-infected mice: did not significantly reduce
HCoV-OC43 [3]; Betacoronavirus 1, OC43, Huh-7, 24 h, read-out: EC50 HCoV-OC43 (Huh-7)
  EC50: 0.19 µM
HCoV-OC43 [3]; conc. 0.1 (unit not given)
  HCoV-OC43, Huh-7: inhibition at the concentration (Fig2B): 48.4 and 50.8 (2×)
HCoV-OC43 [3]; conc. 0.2 (unit not given)
  HCoV-OC43, Huh-7: inhibition at the concentration (Fig2B): 30.0 and 36.0 and 38.1
HCoV-OC43 [3]; conc. 0.7 (unit not given)
  HCoV-OC43, Huh-7: inhibition at the concentration (Fig2B): 73.5 and 75.0 and 75.6
HCoV-OC43 [3]; conc. 2.2 (unit not given)
  HCoV-OC43, Huh-7: inhibition at the concentration (Fig2B): 94.2 and 94.1 and 94.4
HCoV-OC43 [3]; conc. 6.7 (unit not given)
  HCoV-OC43, Huh-7: inhibition at the concentration (Fig2B): 98.5 (2×) and 98.6
HCoV-OC43 [3]; conc. 20.0 (unit not given)
  HCoV-OC43, Huh-7: inhibition at the concentration (Fig2B): 98.4 and 98.3 (2×)
HCoV-229E [4]; Human coronavirus 229E, MRC5, 24 h, read-out: EC50 HCoV-229E (MRC-5)
  EC50: 1.55 µM
HCoV-229E [4]; conc. 0.1 (unit not given)
  HCoV-229E, MRC-5: inhibition at the concentration (Fig2B): 35.3 and 18.1 and 41.4
HCoV-229E [4]; conc. 0.2 (unit not given)
  HCoV-229E, MRC-5: inhibition at the concentration (Fig2B): 32.0 and 58.2
HCoV-229E [4]; conc. 0.7 (unit not given)
  HCoV-229E, MRC-5: inhibition at the concentration (Fig2B): 17.5 and 18.6 and 52.2
HCoV-229E [4]; conc. 2.2 (unit not given)
  HCoV-229E, MRC-5: inhibition at the concentration (Fig2B): 63.2 and 52.3 and 54.8
HCoV-229E [4]; conc. 6.7 (unit not given)
  HCoV-229E, MRC-5: inhibition at the concentration (Fig2B): 83.3 and 82.1 and 80.5
HCoV-229E [4]; conc. 20.0 (unit not given)
  HCoV-229E, MRC-5: inhibition at the concentration (Fig2B): 94.9 and 92.9 and 95.1
HCoV-OC43 [5]; Betacoronavirus 1, OC43, RD, 24 h, read-out: EC50 HCoV-OC43 (RD)
  EC50: 2.22 µM
HCoV-OC43 [5]; conc. 0.1 (unit not given)
  EC50 (OC43, RD): inhibition at the concentration: -25.3 and -42.7 and -34.3
HCoV-OC43 [5]; conc. 0.7 (unit not given)
  EC50 (OC43, RD): inhibition at the concentration: -23.9 and 2.7 and -3.5
HCoV-OC43 [5]; conc. 2.2 (unit not given)
  EC50 (OC43, RD): inhibition at the concentration: 49.6 and 48.7 and 52.3
HCoV-OC43 [5]; conc. 6.7 (unit not given)
  EC50 (OC43, RD): inhibition at the concentration: 93.7 and 94.2 and 94.0
HCoV-OC43 [5]; conc. 20 (unit not given)
  EC50 (OC43, RD): inhibition at the concentration: 99.8

## CCC(CC)COC(=O)[C@H](C)N[P@](=O)(OC[C@H]1O[C@@](C#N)(c2ccc3c(N)ncnn23)[C@H](O)[C@@H]1O)Oc1ccccc1 [RDV]
HCoV-OC43 [6]
  HCoV-OC43 inhibition (Fig5C): 97.17 and 71.11 and 82.55
HCoV-OC43 [7]; Entry
  time-of-addition, viral inhibition: 67.6 and 36.5 and 35.3
HCoV-OC43 [7]; Full-Time
  time-of-addition, viral inhibition: 99.4 and 98.9 and 99.6
HCoV-OC43 [7]; Post-Entry
  time-of-addition, viral inhibition: 98.3 and 99.4 and 98.6

## CC[C@H](C)[C@H](NC(=O)[C@H](CCC(=O)OC)NC(=O)[C@@H](NC(=O)OCc1ccccc1)C(C)C)C(=O)N[C@@H](CC(=O)OC)C(=O)CF [Z-VEID-FMK, reference compound] (Cbz-VE(OMe)ID(OMe)-CH2F)
HCoV-OC43 [8]; RD cells
  antiviral activity in CASP6 knockout cell pools: decreased
HCoV-OC43 [8]; concentration 2, RD-Scramble cells
  Viral inhibition (Fig5K): 58.3 and 64.9 and 64.7
HCoV-OC43 [8]; concentration 20, RD-Scramble cells
  Viral inhibition (Fig5K): 67.9 and 79.5 and 81.6
caspase-6; time point 0, replicates
  Caspase-6 activity (Fig5J): 8.3 and 9.2 and 8.8
caspase-6; time point 2, replicates
  Caspase-6 activity (Fig5J): 12.5 and 11.5 and 12.1
caspase-6; time point 4, replicates
  Caspase-6 activity (Fig5J): 11.7 and 13.0 (2×)
caspase-6; time point 6, replicates
  Caspase-6 activity (Fig5J): 9.9 and 10.2 and 9.5
caspase-6; time point 8, replicates
  Caspase-6 activity (Fig5J): 9.8 and 9.0 and 8.1
HCoV-OC43 [9]
  virus replication (nucleocapsid protein, Western blot): inhibited virus replication
